# Legend:
# [1] = system: TTA45 (DNA, G4) GGGTTAGGGTTAGGGTTAGGGTTAGGGTTAGGGTTAGGGTTAGGG; experiment: CD melting; conditions: 50 mM K+; 10 mM Tris-HCl pH 7.4; 5 µM DNA, 20 µM compound
# TTA69 = experiment: CD melting, DNA stabilization; assay type: binding, human; conditions: 5 µM DNA, 20 µM BMPQ-1, 10 mM Tris-HCl, 50 mM KCl, pH 7.4
# Method: CD studies were performed on a Chirascan circular dichroism spectrophotometer (Jasco, Easton, MD, USA). A quartz cuvette with a 1 mm path length was used to record the spectra over a wavelength range of 220–320 nm with a 1 nm bandwidth. All the samples were prepared in buffer containing 10 mM Tris–HCl pH 7.4, 100 mM KCl. To ensure the concentrations of G-quadruplex units to be 20 μM, multiple G-quadruplexes forming oligonucleotides with different concentrations were used (TTA (G1) 20 μM, TTA45 (G2) 10 μM, TTA69 (G3) 6.67 μM, TTA93 (G4) 5 μM, TTA117 (G5) 4 μM, TTA141 (G6) 3.33 μM). The DNA samples were heated at 95°C for 5 min and cooled down slowly to room temperature. 20, 40 and 60 μM BMPQ-1 were mixed with DNAs separately. Melting curves were measured at 295 nm and the range of temperature was 4–95°C.
# Duplex = experiment: CD melting, DNA stabilization; assay type: binding; conditions: 5 µM DNA (19AT), 20 µM BMPQ-1, 10 mM Tris-HCl, 50 mM KCl, pH 7.4
# Method: Figure S2. Normalized CD thermal melting curves of DNAs in the absence or presence of BMPQ-1 under K+ conditions. (A) TTA69, (B) TTA45, (C) TTA, (D) c-KIT1, (E) TBA, (F) duplex DNA 19AT. The DNA concentration was 5 µM, and BMPQ-1 was 10 µM or 20 µM. All measurements were carried out in the buffer with 10 mM Tris-HCl (pH 7.4), 50 mM KCl. […]
# γH2AX foci in A549 cells = experiment: Immunofluorescence of γH2AX and TRF2 foci; assay type: cell-based, human; conditions: A549, 1.5 μM, 24 h
# Method: The cells (5 × 10^4 cells) were seeded on 35-mm glass-bottomed dishes and grown for 24 h for attachment. Then old medium was replaced by fresh DMEM containing 1.5 μM BMPQ-1 and incubated for 24 h. After washed three times with PBS buffer, the cells were fixed in 4% paraformaldehyde/PBS for 15 min and then permeabilized with 0.3% Triton-X 100/PBS at 37°C for 20 min. Then the cells were blocked with 5% BSA/PBS at 37°C for 1 h. Finally, the cells were incubated with primary antibodies at 37°C for 3 h. After that, the cells were washed six times with blocking buffer, and were then incubated with secondary antibodies at 37°C for 3 h. Finally, the cells were washed six times with PBS buffer again. The digital images were recorded using a confocal laser scanning microscopy (Olympus FV1000) and analyzed with ImageJ software. One hundred nuclei were counted in each group. […]
# Figure 2. […] (B) Quantification of the number of γH2AX foci per nucleus in A549 cells treated with or without BMPQ-1. (C) Quantification of the colocalization of γH2AX and TRF2 per nucleus in A549 cells treated with or without BMPQ-1. […] (E) Quantification of the number of BG4 foci per nucleus in A549 cells treated with or without BMPQ-1. (F) Quantification of the colocalized BG4 and TRF2 per nucleus in A549 cells treated with or without BMPQ-1.
# A549 cells = experiment: Annexin V-FITC/PI apoptosis detection; assay type: cell-based, human; conditions: A549, 3 μM, 24 h
# Method: The A549 cells treated with BMPQ-1 or DMSO were washed twice with PBS and detected using the annexin V-FITC/PI apoptosis detection kit (DOJINDO, Japan). The cells were pelleted and resuspended in the binding buffer. Annexin V-FITC and PI were added, and the cells were disturbed by gently vortexing the samples prior to incubation for 5 min in the dark. Emitted florescence was quantitated by flow cytometry (BD FacsAria, USA). For each analysis, 2.0 × 10^4 events were collected.
# Figure S10. BMPQ-1 induced cell apoptosis of A549. (A) Apoptosis evaluation of A549 cells after 24 h treatment with various concentrations of BMPQ-1. The cells were collected and stained with Annexin V–FITC and PI. Region LL represents the viable cells; LR represents the early apoptotic cells; UR represents the late apoptotic cells; UL represents damaged cells and cell debris.
# (B) Percentage of apoptosis in A549 cells. […]
# [2] = system: Tel26 (DNA, G4) AAAGGGTTAGGGTTAGGGTTAGGGAA; experiment: CD titration; conditions: 100 mM K+; 10 mM Tris-HCl pH 7.4; 265 nm peak decreased
# TTA = conditions: CD melting; 5 µM DNA, 20 µM compound; 10 mM Tris-HCl, 50 mM KCl, pH 7.4
# Method: CD studies were performed on a Chirascan circular dichroism spectrophotometer (Jasco, Easton, MD, USA). A quartz cuvette with a 1 mm path length was used to record the spectra over a wavelength range of 220–320 nm with a 1 nm bandwidth. All the samples were prepared in buffer containing 10 mM Tris–HCl pH 7.4, 100 mM KCl. To ensure the concentrations of G-quadruplex units to be 20 μM, multiple G-quadruplexes forming oligonucleotides with different concentrations were used (TTA (G1) 20 μM, TTA45 (G2) 10 μM, TTA69 (G3) 6.67 μM, TTA93 (G4) 5 μM, TTA117 (G5) 4 μM, TTA141 (G6) 3.33 μM). The DNA samples were heated at 95°C for 5 min and cooled down slowly to room temperature. […] Melting curves were measured at 295 nm and the range of temperature was 4–95°C.
# a Melting temperature (T ) of 5 µM DNA samples with and without 20 µM BMPQ-1 analogs in 10 mM Tris-HCl
# buffer (50 mM KCl, pH 7.4) was determined by circular dichroism spectroscopy, and ΔTm/°C were derived by
# [3] = system: TTA57/T5 (DNA, G4) GGGTTAGGGTTAGGGTTAGGGTTATTATTATTATTAGGGTTAGGGTTAGGGTTAGGG; experiment: fluorescence titration; conditions: 100 mM K+ (KCl) plus potassium phosphate; 10 mM K2HPO4/KH2PO4 pH 7.0; 3 µM compound, DNA 0-10 µM; weaker than TTA45
# [4] = system: TTA45 (DNA, G4) GGGTTAGGGTTAGGGTTAGGGTTAGGGTTAGGGTTAGGGTTAGGG; experiment: ligand fluorescence enhancement; conditions: 100 mM K+ (KCl) plus potassium phosphate; 10 mM K2HPO4/KH2PO4 pH 7.0; 3 µM compound, 2 µM DNA; 10-fold increase at 521 nm
structure (smiles),measurement,setting,value
Cc1ccc(Cn2cc3c(-c4ccc5c(c4)OCO5)nnc-3c3cc4c(cc32)OCO4)cc1 [BMPQ-1],ΔTm,[1],14.6 °C
same,ΔTm (°C) TTA69,TTA69,13.8 °C
same,ΔTm (°C) Duplex,Duplex,1.8 °C
same,co-localization between γH2AX foci and TRF2,γH2AX foci in A549 cells,increase on the co-localization between γH2AX foci and TRF2 was observed with statistical significance
same,average number of γH2AX foci in individual cells,γH2AX foci in A549 cells; compared with control,trebled
same,population of apoptotic cells,A549 cells,approximately 60%
same,binding,[2],yes
same,ΔTm (°C) TTA,TTA,8.4 °C
same,binding,[3],yes
same,binding,[4],yes
